Measurements as given in patent US11344554B2, “Animal and human anti-malarial agents” (Celgene Corporation, priority 2016, dated 2022).

Test system: Plasmodium falciparum
Test: Plasmodium falciparum in vitro [3H]-hypoxanthine parasite growth inhibition assay
Type: cell-based
Details: Erythrocyte, P. falciparum asexual blood stage parasites in human erythrocytes, [3H]-hypoxanthine uptake, read-out: Act Class (IC50 activity level)

Structure (SMILES) | IC50 [nM]
CC(C)(C)Nc1ncc2nc(Nc3cc(Cl)cc(C(F)(F)F)c3)n(C3CCN(CCN)CC3)c2n1 [Cpd 39, 9-(1-(2-aminoethyl)piperidin-4-yl)-N2-tert-butyl-N8-(3-chloro-5-(trifluoromethyl)phenyl)-9H-purine-2,8-diamine] | < 100
CC(C)(C)Nc1ncc2nc(Nc3cc(Cl)cc(C(F)(F)F)c3)n(C3CCNCC3)c2n1 [Cpd 27, N2-tert-butyl-N8-(3-chloro-5-(trifluoromethyl)phenyl)-9-(piperidin-4-yl)-9H-purine-2,8-diamine] | < 100
FC(F)(F)c1cc(Nc2nc3cnc(NC4CC4)nc3n2C2CCNCC2)ccc1Cl [Cpd 80, N8-(4-chloro-3-(trifluoromethyl)phenyl)-N2-cyclopropyl-9-(piperidin-4-yl)-9H-purine-2,8-diamine] | 200 to 500
CC(C)(C)Nc1ncc2nc(Nc3cccc(C(F)(F)F)c3)n(C3CCNCC3)c2n1 [Cpd 3, N2-tert-butyl-9-(piperidin-4-yl)-N8-(3-(trifluoromethyl)phenyl)-9H-purine-2,8-diamine] | < 100
CC1(Nc2ncc3nc(Nc4ccc(C(F)(F)F)c(Cl)c4)n(C4CCNCC4)c3n2)CC1 [Cpd 93, N8-(3-chloro-4-(trifluoromethyl)phenyl)-N2-(1-methylcyclopropyl)-9-(piperidin-4-yl)-9H-purine-2,8-diamine] | 200 to 500
CC(C)Nc1ncc2nc(Nc3ccc(Cl)c(C(F)(F)F)c3)n(C3CCNCC3)c2n1 [Cpd 79, N8-(4-chloro-3-(trifluoromethyl)phenyl)-N2-isopropyl-9-(piperidin-4-yl)-9H-purine-2,8-diamine] | 100 to 200
CC1(Nc2ncc3nc(Nc4cccc(C(F)F)c4)n(C4CCNCC4)c3n2)CCOCC1 [Cpd 57, N8-(3-(difluoromethyl)phenyl)-N2-(4-methyltetrahydro-2H-pyran-4-yl)-9-(piperidin-4-yl)-9H-purine-2,8-diamine] | 500 to 1200
CC(C)(C)Nc1ncc2nc(Nc3cccc(C(F)(F)F)c3)n(CCCN)c2n1 [Cpd 11, 9-(3-aminopropyl)-N2-tert-butyl-N8-(3-(trifluoromethyl)phenyl)-9H-purine-2,8-diamine] | 200 to 500
CC(C)Nc1ncc2nc(Nc3cccc(C(F)(F)F)c3)n(C3CCNCC3)c2n1 [Cpd 66, N2-isopropyl-9-(piperidin-4-yl)-N8-(3-(trifluoromethyl)phenyl)-9H-purine-2,8-diamine] | 100 to 200
FC(F)(F)c1cc(Nc2nc3cnc(NC4CCC4)nc3n2C2CCNCC2)cc(C(F)(F)F)c1 [Cpd 86, N8-(3,5-bis(trifluoromethyl)phenyl)-N2-cyclobutyl-9-(piperidin-4-yl)-9H-purine-2,8-diamine] | 100 to 200
CC(C)(C)Nc1ncc2nc(Nc3ccc(C(F)(F)F)cc3)n(C3CCN(CCN)CC3)c2n1 [Cpd 5, 9-(1-(2-aminoethyl)piperidin-4-yl)-N2-tert-butyl-N8-(4-(trifluoromethyl)phenyl)-9H-purine-2,8-diamine] | 100 to 200
FC(F)(F)c1ccc(Nc2nc3cnc(NC4CC4)nc3n2C2CCNCC2)cc1Cl [Cpd 81, N8-(3-chloro-4-(trifluoromethyl)phenyl)-N2-cyclopropyl-9-(piperidin-4-yl)-9H-purine-2,8-diamine] | 200 to 500
CC1(Nc2ncc3nc(Nc4cccc(C(F)(F)F)c4)n(CCC4CCNC4)c3n2)CCOCC1 (stereo not drawn) [Cpd 58, N2-(4-methyltetrahydro-2H-pyran-4-yl)-9-(2-(pyrrolidin-3-yl)ethyl)-N8-(3-(trifluoromethyl)phenyl)-9H-purine-2,8-diamine] | 200 to 500
FC(F)(F)c1cc(Cl)cc(Nc2nc3cnc(NC4CCCC4)nc3n2C2CCNCC2)c1 [Cpd 53, N8-(3-chloro-5-(trifluoromethyl)phenyl)-N2-cyclopentyl-9-(piperidin-4-yl)-9H-purine-2,8-diamine] | < 100
CC(C)Nc1ncc2nc(Nc3cc(C(F)(F)F)cc(C(F)(F)F)c3)n(C3CCNCC3)c2n1 [Cpd 84, N8-(3,5-bis(trifluoromethyl)phenyl)-N2-isopropyl-9-(piperidin-4-yl)-9H-purine-2,8-diamine] | < 100
